Molecules are shown by their SMILES.

Drawing on US8778941B2, “TRPM8 antagonists and their use in treatments” (AMGEN Inc., priority 2011, dated 2014), this text covers IC50 for 33 molecules.

This test concerns the target T1, human TRPM8 (Homo sapiens, UniProt Q7Z2W7).
T1 construct: expressed in transfected cells; host or cells: Chinese hamster ovary (CHO) cells, T-REx tetracycline-inducible expression system (Invitrogen), co-transfected with pcDNA3.1 jellyfish aequorin
Kind of test: Luminescence readout assay for measuring intracellular calcium (aequorin), hTRPM8 antagonism. The format is cell-based. The settings on record: CHO cell line expressing human TRPM8 and aequorin; activation by icilin, L-menthol or cold buffer (table does not say which). The method, then: Luminescence Readout Assay for Measuring Intracellular Calcium.
A stable Chinese hamster ovary cell line expressing human TRPM8 was generated using tetracycline inducible T-REx™ expression system from Invitrogen, Inc. (Carlsbad, Calif.). […] Twenty four hours before the assay, cells were seeded in 96-well plates and TRPM8 expression was induced with 0.5 μg/mL tetracycline. […] Potential antagonists were added 2.5 min prior to the addition of agonist, […], 100 µM L-menthol, or 1 min prior to the addition of cold buffer (<10° C.). The luminescence was measured by a CCD camera based FLASH-luminometer built by Amgen, Inc. A cooling device attached to FLASH luminometer was used for cold activation.
In general terms: Calcium assays in cells follow changes in intracellular calcium, usually with a dye or a luminescent sensor.

T1 sequence (Q7Z2W7 whole entry): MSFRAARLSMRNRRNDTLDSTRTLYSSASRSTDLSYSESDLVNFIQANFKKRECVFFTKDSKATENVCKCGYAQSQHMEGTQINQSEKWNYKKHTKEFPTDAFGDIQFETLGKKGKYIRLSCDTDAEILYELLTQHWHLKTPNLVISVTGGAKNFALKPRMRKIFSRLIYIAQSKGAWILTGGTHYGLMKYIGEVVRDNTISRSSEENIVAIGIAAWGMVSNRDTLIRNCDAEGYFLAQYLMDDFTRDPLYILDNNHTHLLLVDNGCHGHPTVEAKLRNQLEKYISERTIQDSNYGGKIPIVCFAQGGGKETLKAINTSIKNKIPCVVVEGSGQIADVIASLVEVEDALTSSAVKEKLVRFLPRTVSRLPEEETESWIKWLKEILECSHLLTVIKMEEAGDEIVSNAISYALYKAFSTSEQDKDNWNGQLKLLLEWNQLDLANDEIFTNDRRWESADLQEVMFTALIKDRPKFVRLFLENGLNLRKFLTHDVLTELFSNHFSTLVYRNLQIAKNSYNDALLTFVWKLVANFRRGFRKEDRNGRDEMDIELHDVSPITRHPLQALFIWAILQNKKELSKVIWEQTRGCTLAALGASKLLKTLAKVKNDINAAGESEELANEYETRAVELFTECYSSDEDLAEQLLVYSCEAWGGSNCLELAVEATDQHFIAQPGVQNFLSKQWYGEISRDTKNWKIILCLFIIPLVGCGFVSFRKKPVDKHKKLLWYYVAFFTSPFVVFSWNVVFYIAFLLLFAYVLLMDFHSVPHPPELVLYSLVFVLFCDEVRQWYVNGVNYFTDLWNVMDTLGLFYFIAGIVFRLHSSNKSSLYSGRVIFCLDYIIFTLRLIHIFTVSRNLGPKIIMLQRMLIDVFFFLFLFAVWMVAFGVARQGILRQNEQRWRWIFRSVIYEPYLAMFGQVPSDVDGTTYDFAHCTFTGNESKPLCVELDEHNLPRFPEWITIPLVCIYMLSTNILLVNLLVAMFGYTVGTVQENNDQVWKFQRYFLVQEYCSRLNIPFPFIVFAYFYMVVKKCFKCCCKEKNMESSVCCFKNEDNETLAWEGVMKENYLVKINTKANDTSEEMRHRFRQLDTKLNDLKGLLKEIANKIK

As to `COc1ccc([C@H](NC(=O)Nc2cccnc2)c2ncccc2C(F)(F)F)cc1` [Example 2, (S)-1-((4-methoxy-phenyl)(3-(trifluoro-methyl)-pyridin-2-yl)-methyl)-3-(pyridin-3-yl)-urea], the IC50 is 230 nM.

In the case of `O=C(Nc1cccnc1)N[C@@H](c1cccc(Cl)c1)c1ncccc1C(F)(F)F` [Example 3, (S)-1-((3-chlorophenyl)-(3-(trifluoro-methyl)-pyridin-2-yl)-methyl)-3-(pyridin-3-yl)-urea], the IC50 came to 172 nM.

As for `COc1cccc([C@H](NC(=O)Nc2cccnc2)c2ncccc2C(F)(F)F)c1` [Example 4, (S)-1-((3-methoxy-phenyl)(3-(trifluoro-methyl)-pyridin-2-yl)-methyl)-3-(pyridin-3-yl)-urea], the IC50 is 1230 nM.

Regarding `COc1ccc([C@H](NC(=O)Nc2cccnc2)c2ncccc2C(F)(F)F)cc1F` [Example 5, (S)-1-((3-fluoro-4-methoxy-phenyl)(3-(trifluoro-methyl)-pyridin-2-yl)-methyl)-3-(pyridin-3-yl)-urea], the IC50 is 145 nM.

`O=C(Nc1cccnc1)N[C@@H](c1cnc2ccccc2c1)c1ncccc1C(F)(F)F` [Example 6, (S)-1-(pyridin-3-yl)-3-(quinolin-3-yl(3-(trifluoro-methyl)-pyridin-2-yl)-methyl)urea]: the IC50 is 259 nM.

With `Cc1cccc([C@H](NC(=O)Nc2cccnc2)c2ncccc2C(F)(F)F)c1` [Example 7, (S)-1-((3-methylphenyl) (3-(trifluoro-methyl)-pyridin-2-yl)-methyl)-3-(pyridin-3-yl)-urea], the IC50 came to 723 nM.

As for `O=C(Nc1cccnc1)N[C@@H](c1cccc(F)c1)c1ncccc1C(F)(F)F` [Example 8, (S)-1-((3-fluorophenyl)-(3-(trifluoro-methyl)-pyridin-2-yl)-methyl)-3-(pyridin-3-yl)-urea], the IC50 was 593 nM.

With `O=C(Nc1cccnc1)N[C@@H](c1cccc(C(F)(F)F)c1)c1ncccc1C(F)(F)F` [Example 9, (S)-1-((3-(trifluoro-methyl)-phenyl)(3-(trifluoro-methyl)-pyridin-2-yl)-methyl)-3-(pyridin-3-yl)-urea], the IC50 is 175 nM.

Regarding `O=C(Nc1cccnc1)N[C@@H](c1cnc2cccc(Cl)c2c1)c1ncccc1C(F)(F)F` [Example 10, (S)-1-((5-chloroquinolin-3-yl)(3-(trifluoro-methyl)-pyridin-2-yl)-methyl)-3-(pyridin-3-yl)-urea], the IC50 was 172 nM.

Turning to `O=C(Nc1cccnc1)N[C@@H](c1ccc2ccccc2c1)c1ncccc1C(F)(F)F` [Example 11], the IC50 is 101 nM.

Turning to `O=C(Nc1cccnc1)N[C@@H](c1cnc2c(Cl)cccc2c1)c1ncccc1C(F)(F)F` [Example 12, (S)-1-((8-chloroquinolin-3-yl)(3-(trifluoro-methyl)-pyridin-2-yl)-methyl)-3-(pyridin-3-yl)-urea], the IC50 amounted to 88 nM.

On to `O=C(Nc1cccnc1)N[C@@H](c1ccc(Cl)c(Cl)c1)c1ncccc1C(F)(F)F` [Example 13, (S)-1-((3,4-dichlorophenyl) (3-(trifluoro-methyl)-pyridin-2-yl)-methyl)-3-(pyridin-3-yl)-urea], for which the IC50 was determined as 51 nM.

For `O=C(Nc1cccnc1)N[C@@H](c1cnc2c(F)cccc2c1)c1ncccc1C(F)(F)F` [Example 14, (S)-1-((8-fluoro-quinolin-3-yl)-(3-(trifluoro-methyl)-pyridin-2-yl)-methyl)-3-(pyridin-3-yl)-urea], the IC50 turned out to be 533 nM.

Regarding `O=C(Nc1cccnc1)N[C@@H](c1ccc(OC(F)(F)F)cc1)c1ncccc1F` [Example 15, (S)-1-((3-fluoropyridin-2-yl)(4-(trifluoro-methoxy)-phenyl)-methyl)-3-(pyridin-3-yl)-urea], the IC50 is 15 nM.

In the case of `COc1cccc2cc([C@H](NC(=O)Nc3cccnc3)c3ncccc3C(F)(F)F)cnc12` [Example 16, (S)-1-((8-methoxy-quinolin-3-yl)-(3-(trifluoro-methyl)-pyridin-2-yl)-methyl)-3-(pyridin-3-yl)-urea], the IC50 was found to be 2260 nM.

On to `O=C(Nc1cccnc1)N[C@@H](c1ccc2ncccc2c1)c1ncccc1C(F)(F)F` [Example 17, (S)-1-(pyridin-3-yl)-3-(quinolin-6-yl(3-(trifluoro-methyl)-pyridin-2-yl)-methyl)urea], for which the IC50 amounted to 811 nM.

`COc1ccc2cc([C@H](NC(=O)Nc3cccnc3)c3ncccc3C(F)(F)F)cnc2c1` [Example 18, (S)-1-((7-methoxy-quinolin-3-yl)-(3-(trifluoro-methyl)-pyridin-2-yl)-methyl)-3-(pyridin-3-yl)-urea]: the IC50 stood at 308 nM.

Turning to `O=C(Nc1cccnc1)N[C@@H](c1ccc(F)cc1)c1ncccc1C(F)(F)F` [Example 19, (S)-((4-fluorophenyl)-(3-(trifluoro-methyl)-pyridin-2-yl)-methyl)-3-(pyridin-3-yl)-urea], the IC50 amounted to 382 nM.

Regarding `O=C(Nc1cccnc1)N[C@@H](c1ccccc1)c1ncccc1C(F)(F)F` [Example 20, (S)-1-(phenyl(3-(trifluoro-methyl)-pyridin-2-yl)-methyl)-3-(pyridin-3-yl)-urea], the IC50 came to 1310 nM.

With `O=C(Nc1cccnc1)NC(c1ccc(F)c(C(F)(F)F)c1)c1ncccc1C(F)(F)F` (stereo not drawn) [Example 21, 1-((4-fluoro-3-(trifluoro-methyl)-phenyl)(3-(trifluoro-methyl)-pyridin-2-yl)-methyl)-3-(pyridin-3-yl)-urea (2,2,2-trifluoro-acetate)], the IC50 came out at 178 nM.

Regarding `O=C(Nc1cccnc1)NC(c1ccc(F)c(C(F)(F)F)c1)c1ncccc1F` (stereo not drawn) [Example 22, 1-((4-fluoro-3-(trifluoro-methyl)-phenyl)(3-fluoropyridin-2-yl)methyl)-3-(pyridin-3-yl)urea (2,2,2-trifluoro-acetate)], the IC50 amounted to 201 nM.

On to `O=C(Nc1cccnc1)NC(c1cc(F)cc(Cl)c1)c1ncccc1C(F)(F)F` (stereo not drawn) [Example 23, 1-((3-chloro-5-fluoro-phenyl)(3-(trifluoro-methyl)-pyridin-2-yl)-methyl)-3-(pyridin-3-yl)-urea (2,2,2-trifluoro-acetate)], for which the IC50 was 255 nM.

Regarding `O=C(Nc1cccnc1)NC(c1cc(F)cc(Cl)c1)c1ncccc1F` (stereo not drawn) [Example 24, 1-((3-chloro-5-fluoro-phenyl)(3-fluoropyridin-2-yl)methyl)-3-(pyridin-3-yl)urea (2,2,2-trifluoro-acetate)], the IC50 came out at 674 nM.

On to `O=C(Nc1cccnc1)NC(c1ccc(C(F)(F)F)nc1)c1ncccc1C(F)(F)F` (stereo not drawn) [Example 25, 1-(pyridin-3-yl)-3-((3-(trifluoro-methyl)-pyridin-2-yl)-(6-(trifluoro-methyl)-pyridin-3-yl)-methyl)urea (2,2,2-trifluoro-acetate)], for which the IC50 was 216 nM.

Consider `O=C(Nc1cccnc1)N[C@@H](c1ccc(Cl)cc1)c1ncccc1C(F)(F)F` [Example 26, (S)-1-((4-chlorophenyl)-(3-(trifluoro-methyl)-pyridin-2-yl)-methyl)-3-(pyridin-3-yl)-urea], for which the IC50 came out at 248 nM.

Turning to `CCc1ccc([C@H](NC(=O)Nc2cccnc2)c2ncccc2C(F)(F)F)cc1` [Example 27, (S)-1-((4-ethylphenyl)-(3-(trifluoro-methyl)-pyridin-2-yl)-methyl)-3-(pyridin-3-yl)-urea], the IC50 came out at 41 nM.

As to `O=C(Nc1cccnc1)N[C@@H](c1ccc(C(F)(F)F)cc1)c1ncccc1Br` [Example 28, (S)-1-((3-bromopyridin-2-yl)(4-(trifluoro-methyl)-phenyl)-methyl)-3-(pyridin-3-yl)-urea], the IC50 came to 67 nM.

Consider `O=C(Nc1cccnc1)N[C@@H](c1ccc(C(F)(F)F)cc1)c1ccccn1` [Example 30, (S)-1-(pyridin-2-yl(4-(trifluoro-methyl)-phenyl)-methyl)-3-(pyridin-3-yl)-urea], for which the IC50 turned out to be 97 nM.

For `O=C(Nc1ccccc1)N[C@@H](c1ccc(C(F)(F)F)cc1)c1ncccc1C(F)(F)F` [Example 31, (S)-1-phenyl-3-((4-(trifluoro-methyl)-phenyl)(3-(trifluoro-methyl)-pyridin-2-yl)-methyl)urea], the IC50 came to 81 nM.

As for `CC(C)NC(=O)N[C@@H](c1ccc(C(F)(F)F)cc1)c1ncccc1C(F)(F)F` [Example 32, (S)-1-isopropyl-3-((4-(trifluoro-methyl)-phenyl)(3-(trifluoro-methyl)-pyridin-2-yl)-methyl)urea], the IC50 is 66 nM.

For the molecule `C[C@H](NC(=O)N[C@@H](c1ccc(C(F)(F)F)cc1)c1ncccc1C(F)(F)F)c1cccc2ccccc12` [Example 33, 1-((S)-1-(naphthalen-1-yl)ethyl)-3-((S)-(4-(trifluoro-methyl)-phenyl)(3-(trifluoro-methyl)-pyridin-2-yl)-methyl)urea (2,2,2-trifluoro-acetate)], the IC50 worked out at 1900 nM.

In the case of `O=C(NCCCc1ccccc1)N[C@@H](c1ccc(C(F)(F)F)cc1)c1ncccc1C(F)(F)F` [Example 34, (S)-1-(3-phenylpropyl)-3-((4-(trifluoro-methyl)-phenyl)(3-(trifluoro-methyl)-pyridin-2-yl)-methyl)urea (2,2,2-trifluoro-acetate)], the IC50 stood at 127 nM.

With `O=C(NC(=O)Oc1ccccc1)N[C@@H](c1ccc(C(F)(F)F)cc1)c1ncccc1C(F)(F)F` [Example 35, (S)-1-(phenyl-formate)-3-((4-(trifluoro-methyl)-phenyl)(3-(trifluoro-methyl)-pyridin-2-yl)-methyl)urea (2,2,2-trifluoro-acetate)], the IC50 was 1710 nM.

What is called IC50 is the concentration that inhibits the measured activity by half.
